# *1 amine or outer side, *2 acyl side, *3 side chain or, on linkers, in order; H or OH if unused. Where a SMILES comes first, the peptide text is derived from it. Bridges are numbered along the chain shown (N, C = ends). [ ]: non-standard residue; d: D form. NHCH2(1,3-C6H4)CH2CO = O=C(Cc1cccc(CN[*:1])c1)[*:2]; 2Nal = N[C@@H](Cc1ccc2ccccc2c1)C(=O)O; Cit = NC(=O)NCCC[C@H](N)C(=O)O; Gly(N(CH2)3NH2) = NCCCNCC(=O)O
# Key:
# [1] = in vitro; type: cell-based
# Experimental: The cytotoxicity of the peptides to HELA cells (Acc57) and COS-7 cells (CRL-1651) was determined using the MTl reduction assay [see ref. 6 and 7, below]. Briefly the method was as follows: HELA cells and COS-7 cells were seeded at 7.0·10^3 and, respectively, 4.5·10^3 cells per well and grown in 96-well microtiter plates for 24 hours at 37° C. at 5% CO2. At this point, time zero (Tz) was determined by MTT reduction (see below). The supernatant of the remaining wells was discarded and fresh medium and the peptides in serial dilutions of 12.5, 25 and 50 μM were pipeted into the wells. Each peptide concentration was assayed in triplicate. Incubation of the cells was continued for 48 hours at 37° C. at 5% CO2. Wells were then washed once with PBS and subsequently 100 μl MTT reagent (0.5 mg/mL in medium RPMI1640 and, respectively, DMEM) was added to the wells. This was incubated at 37° C. for 2 hours and subsequently the medium was aspirated and 100 μl isopropanol was added to each well. The absorbance at 595 nm of the solubilized product was measured (OD595peptide). For each concentration averages were calculated from triplicates. The percentage of growth was calculated as follows: (OD595peptide-OD595Tz-OD595Empty well)/(OD595Tz-OD595Empty well)×100% and was plotted for each peptide concentration.
# The LC 50 values (Lethal Concentration, defined as the concentration that kills 50% of the cells) were determined for each peptide by using the trend line function of EXCEL (Microsoft Office 2000) for the concentrations (50, 25, 12.5 and 0 μM), the corresponding growth percentages and the value −50, (=TREND(C50:C0,%50:%0,−50))
# (§1) All fine chemicals came from Merck (D)armstadt, Germany).
# [2] = system: human red blood cells (hRBC); type: cell-based; conditions: red cells of human, 1 h
# Experimental: The peptides were tested for their hemolytic activity against human red blood cells (hRBC). Fresh hRBC were washed three times with phosphate buffered saline (PBS) by centrifugation for 10 min at 2000×g. Peptides at a concentration of 100 μM were incubated with 20% v/v hRBC for 1 hour at 37-C. The final erythrocyte concentration was approximately 0.9×10^9 cells per mL. A value of 0% resp. 100% cell lysis was determined by incubation of the hRBC in the presence of PBS alone and respectively 0.1% Triton X-100 in H2O. The samples were centrifuged and the supernatant was 20-fold diluted in PBS buffer and the optical density (OD) of the sample at […] was measured. The 100% lyses value (OD540H2O) gave an OD540 of approximately 1.3-1.8. Percent hemolysis was calculated as follows: (OD540peptide/OD540H2O)×100%.
# [3] = system: 'CCR5' cells / Hut/4-3 cells co-cultivation; experiment: FIGS-Assay (co-cultivated cell cultures, beta-galactosidase/ONPG read-out); type: cell-based; conditions: 48 hours of co-cultivation
# Experimental: The assay was performed according to ref. 5, below. Stock dilutions of the peptides (10 mM) were prepared by dissolving in 10 mM Tris-HCl at room temperature. Stock solutions were kept at +4° C., light protected. Working dilutions were prepared extemporaneously by serial dilution in Phosphate Buffered Saline (PBS) and added in a final volume of 10 μL directly to the cell cultures. After 48 hours of co-cultivation the cultures were rinsed with PBS and then exposed to glutaraldehyde/formaldehyde (0.2%/2%) in PBS for five minutes. For photometric quantification the fixed cultures were subsequently incubated with ortho-nitro-phenyl-galactopyranoside (ONPG) as a O-galactosidase substrate, which was enzymatically converted into the chromophore ortho-nitrophenol (ONP). The read out is directly obtained by measuring optical density of wells at 405 nm in an IEMS 96 well-plate reader.
# as §1
# [4] = molecular target: T1, CXCR4 (Homo sapiens, UniProt P61073); experiment: Ca2+ assay: CXCR4 antagonizing activity of the peptides; type: cell-based; conditions: CXCR4 transfected pre-B cells, Fura-2 fluorescence, 37° C.
# T1 construct: expressed in transfected cells
# T1 sequence (P61073 whole entry): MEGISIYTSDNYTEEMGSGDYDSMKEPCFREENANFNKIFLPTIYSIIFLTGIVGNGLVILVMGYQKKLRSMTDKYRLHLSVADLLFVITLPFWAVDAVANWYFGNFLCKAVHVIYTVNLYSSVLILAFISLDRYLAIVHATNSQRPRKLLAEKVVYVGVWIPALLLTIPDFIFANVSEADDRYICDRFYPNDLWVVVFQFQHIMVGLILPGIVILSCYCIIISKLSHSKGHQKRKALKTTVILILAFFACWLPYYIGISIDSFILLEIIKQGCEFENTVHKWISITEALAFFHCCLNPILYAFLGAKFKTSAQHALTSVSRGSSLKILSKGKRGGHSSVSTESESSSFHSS
# Experimental: 2.2. Ca^2+− assay: CXCR4Antagonizing Activity of the Peptides
# 3-4 Mio CXCR4 transfected pre-B cells [see references 1, 2 and 3, below] per measurement were resuspended in 200 μl MSB (20 mM 4-(2-Hyddroxyethyl)-piperazin-1-ethansulfonic acid (HEPES), 136 mM NaCl, 4.8 mM KCl and 1 mM CaCl2) containing 5 mM D-Glucose and were loaded with 0.75 μl of 1 mM Fura-2-acetoxymethylester for 17 minutes at 37° C. The cells were washed free from Fura-2-AM with a platelet centrifuge and resuspended in 800 R1 MSB containing 5 mM D-Glucose. The peptides to be administered were diluted to a 100 fold end concentration in MSB/0.2% PPL, and 8 pl were injected. [Ca^2+ ]i-dependent fluorescence change in response to single or sequential stimulation with the peptide was recorded with a fluorimeter at an excitation wavelength of 340 nm and an end emission wavelength of 510 nm [see ref. 4, below]. Measurements were done under continuous stirring at 37° C. The signal intension was calibrated with 3 mM4 CaCl2/1 nM lonomycin (maximal fura-2-acetoxymethylester saturation) and […] MnCl2 (minimal Fura-2-acetoxymethylester saturation) and [Ca^2+]i-changes are presented in % fura-2-acetoxymethylester saturation.
# MSB: 20 nmM HEPES, 136 mM NaCl, 4.8 mM KCl, 1 mM CaCl2.2H2O, pH 7.4; Osmolarity: 310 mOsm adjusted with NaOH or HCl, adjusted with dH2O or PBS.
# MSB plus: 5 mM D-glucose in MSB (50 mg/50 mL).
# Fura 2-acetoxymethylester: 1 mM stock solution in dimethylsulfoxide.
# [5] = molecular target: CCRF-CEM cells (Homo sapiens, UniProt P61073); conditions: read-out: IC50 (μM) Cell migration assay; CCRF-CEM cells migrating to 1 nM SDF-1, 4 hours
# Sequence of CCRF-CEM cells (P61073 whole entry): as above
# Experimental: BELA cells and CCRF-CEM cells were maintained in RPMI1640 plus 5% FBS, Pen/Strept and 2 mM L-Glutamine. […] All cell lines were grown at 37° C. at 5% CO2. Cell media, media supplements, PBS-buffer, HEPES, Pen/Strept., L-Glutamine and sera were purchased from Gibco (Pailsey, UK). All fine chemicals came from Merck (D)armstadt, Germany).
# Chemotactic Assay (Cell Migration Assay)
# The chemotactic response of CCRF-CEM cells to a gradient of stromal cell-derived factor 1 a (SDF-1) was measured using disposable assay plates from Neuroprobe (5 μ pore size) (Gaithersburg, Md.), according to the manufacturer's directions and references therein [especially ref. 8, below]. Briefly, one 175 cm^2 flask was washed once with Dubecco's phosphate buffered saline (DPBS), and trypsinized for 10 minutes or until cells had lifted. The trypsin was neutralized by the addition of fresh medium containing serum and the cells were pelleted, washed once in DPBS, and resuspended at 1-0.5×10^7 cells/ml in RPM!+0.5% bovine serum albumin (BSA). 451 μl of cell suspension were mixed with 5μ of 10-fold concentrated PEM peptide diluted in the same assay medium. 35 μl of this mixture were applied to the top of the assay filter. The cells were allowed to migrate (at 37°) into the bottom chamber of the assay plate containing 1 nM SDF-1. After 4 hours, the filter was removed and MTT was added to the migrated cells to a final concentration of 0.5 mg/ml, and incubated for a further 4 hours. After labeling with MTT, all medium was removed and 100 μl of isopropanol+10 mM HCl were added to the cells. The optical absorbance at 595 nm (ABS595) was read using a Tecan Genios plate reader with Magellan software. The number of cells migrated was determined by comparing ABS595 values against a standard curve generated with a known number of cells in the assay plate and were plotted against SDF-1 concentration to obtain a sigmoidal curve and to determine the IC50 values. The values for IC50 were determined using the Trendline function in Microsoft Excel by fitting a logarithmic curve to the averaged datapoints.
SMILES,CC50 [1] [µM],Hemolysis at 100 μM [2] [%],FIGS % inhibition at 200 nM [3] [%],CC50 at 48 h [1] [µM],IC50 [4] [nM],IC50 [5] [µM],"FIGS % inhibition, At 300 nM ([3]; At 300 nM)"
N=C(N)NCCC[C@H](NC(=O)[C@@H]1CSSC[C@H](NC(=O)[C@H](Cc2ccc3ccccc3c2)NC(=O)[C@H](CCCNC(=N)N)NC(=O)[C@@H](N)CCCNC(=N)N)C(=O)N[C@@H](Cc2ccc(O)cc2)C(=O)N[C@@H](CCCCN)C(=O)N[C@H](CCCCN)C(=O)N2CCC[C@H]2C(=O)N[C@@H](Cc2ccc(O)cc2)C(=O)N[C@@H](CCCNC(N)=O)C(=O)N1)C(N)=O [Example 1] (H-RR[2Nal]CYK[dK]PY[Cit]CR-NH2; disulfide 4-11; N-terminus assumed),75,0.4,,,,,
N=C(N)NCCC[C@H](NC(=O)[C@@H]1CSSC[C@H](NC(=O)[C@H](Cc2ccc3ccccc3c2)NC(=O)[C@H](CCCNC(=N)N)NC(=O)[C@@H](N)CCCNC(=N)N)C(=O)N[C@@H](Cc2ccc(O)cc2)C(=O)N[C@@H](CCCNC(=N)N)C(=O)N[C@H](CCCCN)C(=O)N2CCC[C@H]2C(=O)N[C@@H](Cc2ccc(O)cc2)C(=O)N[C@@H](CCCNC(N)=O)C(=O)N1)C(N)=O [Example 2] (H-RR[2Nal]CYR[dK]PY[Cit]CR-NH2; disulfide 4-11),,0.9,3.8,58,,,
N=C(N)NCCC[C@H](NC(=O)[C@@H]1CSSC[C@H](NC(=O)[C@H](Cc2ccc3ccccc3c2)NC(=O)[C@H](CCCNC(=N)N)NC(=O)[C@@H](N)CCCNC(=N)N)C(=O)N[C@@H](Cc2ccc(O)cc2)C(=O)N[C@@H](CCCCN)C(=O)N[C@H](CCCCN)C(=O)N2CCC[C@H]2C(=O)N[C@@H](CCCNC(=N)N)C(=O)N[C@@H](CCCNC(N)=O)C(=O)N1)C(N)=O [Example 3] (H-RR[2Nal]CYK[dK]PR[Cit]CR-NH2; disulfide 4-11; N-terminus assumed),,0.7,5.7,52,490,,
N=C(N)NCCC[C@H](NC(=O)[C@@H]1CSSC[C@H](NC(=O)[C@H](Cc2ccc3ccccc3c2)NC(=O)[C@H](CCCNC(=N)N)NC(=O)[C@@H](N)CCCNC(=N)N)C(=O)N[C@@H](Cc2ccc(O)cc2)C(=O)N[C@@H](CCCCN)C(=O)N2CCC[C@@H]2C(=O)N2CCC[C@H]2C(=O)N[C@@H](Cc2ccc(O)cc2)C(=O)N[C@@H](CCCNC(=N)N)C(=O)N1)C(N)=O [Example 4] (H-RR[2Nal]CYK[dP]PYRCR-NH2; disulfide 4-11; N-terminus assumed),,0.3,26.0,> 300,848,,
N=C(N)NCCC[C@H](NC(=O)[C@@H]1CSSC[C@H](NC(=O)[C@H](Cc2ccc3ccccc3c2)NC(=O)[C@H](CCCNC(=N)N)NC(=O)[C@@H](N)CCCNC(=N)N)C(=O)N[C@@H](Cc2ccc(O)cc2)C(=O)N[C@@H](CCCNC(=N)N)C(=O)N2CCC[C@@H]2C(=O)N2CCC[C@H]2C(=O)N[C@@H](Cc2ccc(O)cc2)C(=O)N[C@@H](CCCNC(=N)N)C(=O)N1)C(N)=O [Example 5] (H-RR[2Nal]CYR[dP]PYRCR-NH2; disulfide 4-11; N-terminus assumed),,0.7,16.4,67,132,,
N=C(N)NCCC[C@H](NC(=O)[C@@H]1CSSC[C@H](NC(=O)[C@H](Cc2ccc3ccccc3c2)NC(=O)[C@H](CCCNC(=N)N)NC(=O)CNCCCN)C(=O)N[C@@H](Cc2ccc(O)cc2)C(=O)N[C@@H](CCCNC(N)=O)C(=O)N[C@@H](CCCCN)C(=O)N2CCC[C@@H]2C(=O)N2CCC[C@H]2C(=O)N[C@@H](Cc2ccc(O)cc2)C(=O)N[C@@H](CCCNC(=N)N)C(=O)N[C@@H](CCCNC(N)=O)C(=O)N1)C(N)=O [Example 15] (H-[Gly(N(CH2)3NH2)]R[2Nal]CY[Cit]K[dP]PYR[Cit]CR-NH2; disulfide 4-13),,,,,,0.57,
N=C(N)NCCC[C@H](NC(=O)[C@@H]1CSSC[C@H](NC(=O)[C@H](Cc2ccc3ccccc3c2)NC(=O)[C@H](CCCNC(=N)N)NC(=O)[C@@H](N)CCCNC(=N)N)C(=O)N[C@@H](Cc2ccc(O)cc2)C(=O)N[C@@H](CCCNC(N)=O)C(=O)N[C@@H](CCCCN)C(=O)N2CCC[C@@H]2C(=O)N2CCC[C@H]2C(=O)N[C@@H](Cc2ccc(O)cc2)C(=O)N[C@@H](CCCNC(=N)N)C(=O)N[C@@H](CCCNC(N)=O)C(=O)N1)C(=O)O [Example 20] (H-RR[2Nal]CY[Cit]K[dP]PYR[Cit]CR-OH; disulfide 4-13),,0.2,,138,15.5,,At 300 nM: 100%
N=C(N)NCCC[C@H](NC(=O)[C@@H]1CSSC[C@H](NC(=O)[C@H](Cc2ccc3ccccc3c2)NC(=O)[C@H](CCCNC(=N)N)NC(=O)[C@@H](N)CCCNC(=N)N)C(=O)N[C@@H](Cc2ccc(O)cc2)C(=O)N[C@@H](CCCNC(N)=O)C(=O)N[C@@H](CCCCN)C(=O)N[C@H]2C[C@H]3C(=O)N[C@@H](CC(=O)N[C@@H](Cc4ccc(O)cc4)C(=O)N[C@@H](CCCNC(=N)N)C(=O)N[C@@H](CCCNC(N)=O)C(=O)N1)C(=O)N3C2)C(N)=O [Example 21],,0.8,29.6,82,,,
"N=C(N)NCCC[C@H](NC(=O)[C@@H]1CSSC[C@H](NC(=O)[C@H](Cc2ccc3ccccc3c2)NC(=O)[C@H](CCCNC(=N)N)NC(=O)[C@@H](N)CCCNC(=N)N)C(=O)N[C@@H](Cc2ccc(O)cc2)C(=O)N[C@@H](CCCNC(N)=O)C(=O)N[C@@H](CCCCN)C(=O)NCc2cccc(c2)CC(=O)N[C@@H](Cc2ccc(O)cc2)C(=O)N[C@@H](CCCNC(=N)N)C(=O)N[C@@H](CCCNC(N)=O)C(=O)N1)C(N)=O [Example 22] (H-RR[2Nal]CY[Cit]K[NHCH2(1,3-C6H4)CH2CO]YR[Cit]CR-NH2; disulfide 4-12)",,0.1,22.5,75,80.3,,
N=C(N)NCCC[C@H](NC(=O)[C@@H]1CSSC[C@H](NC(=O)[C@H](Cc2ccc3ccccc3c2)NC(=O)[C@H](CCCNC(=N)N)NC(=O)[C@@H](N)CCCNC(=N)N)C(=O)N[C@@H](Cc2ccc(O)cc2)C(=O)N[C@@H](CCCNC(N)=O)C(=O)N[C@@H](CCCCN)C(=O)N2CCC[C@H]2C(=O)N2CCC[C@H]2C(=O)N[C@@H](Cc2ccc(O)cc2)C(=O)N[C@@H](CCCNC(=N)N)C(=O)N[C@@H](CCCNC(N)=O)C(=O)N1)C(N)=O [Example 24] (H-RR[2Nal]CY[Cit]KPPYR[Cit]CR-NH2; disulfide 4-13),,1.1,17.1,67,100,,

# From patent publication US7838496B2, “Template-fixed peptidomimetics as medicaments against HIV and cancer” (Polyphor AG/Ltd., priority 2003, dated 2010)
